Target: GST tagged truncated human mutant G2019S LRRK2 (Homo sapiens (Human), UniProt Q5S007, G2019S)
Assay: LRRK2 Km ATP LanthaScreen Assay
Format: biochemical
Conditions: G2019S LRRK2, 134 μM ATP (Km ATP), mean values; for IC50: read-out: LRRK2 pIC50 (converted)
In short: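 Enzyme (GST-tagged, truncated) was preincubated with compound for 15 min at RT in 50 mM Tris pH 8.5, 10 mM MgCl2, 0.01% Brij-35, 1 mM EGTA, 2 mM DTT and 0.05 mM orthovanadate. Fluorescein-LRRKtide and 134 μM ATP (Km) were then added for 90 min. EDTA and Tb-anti-pERM antibody stopped the reaction; the TR-FRET 520/495 ratio gave 4-parameter IC50s, reported as mean pIC50.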

Chain of GST tagged truncated human mutant G2019S LRRK2 (Q5S007 970-2527 G2019S): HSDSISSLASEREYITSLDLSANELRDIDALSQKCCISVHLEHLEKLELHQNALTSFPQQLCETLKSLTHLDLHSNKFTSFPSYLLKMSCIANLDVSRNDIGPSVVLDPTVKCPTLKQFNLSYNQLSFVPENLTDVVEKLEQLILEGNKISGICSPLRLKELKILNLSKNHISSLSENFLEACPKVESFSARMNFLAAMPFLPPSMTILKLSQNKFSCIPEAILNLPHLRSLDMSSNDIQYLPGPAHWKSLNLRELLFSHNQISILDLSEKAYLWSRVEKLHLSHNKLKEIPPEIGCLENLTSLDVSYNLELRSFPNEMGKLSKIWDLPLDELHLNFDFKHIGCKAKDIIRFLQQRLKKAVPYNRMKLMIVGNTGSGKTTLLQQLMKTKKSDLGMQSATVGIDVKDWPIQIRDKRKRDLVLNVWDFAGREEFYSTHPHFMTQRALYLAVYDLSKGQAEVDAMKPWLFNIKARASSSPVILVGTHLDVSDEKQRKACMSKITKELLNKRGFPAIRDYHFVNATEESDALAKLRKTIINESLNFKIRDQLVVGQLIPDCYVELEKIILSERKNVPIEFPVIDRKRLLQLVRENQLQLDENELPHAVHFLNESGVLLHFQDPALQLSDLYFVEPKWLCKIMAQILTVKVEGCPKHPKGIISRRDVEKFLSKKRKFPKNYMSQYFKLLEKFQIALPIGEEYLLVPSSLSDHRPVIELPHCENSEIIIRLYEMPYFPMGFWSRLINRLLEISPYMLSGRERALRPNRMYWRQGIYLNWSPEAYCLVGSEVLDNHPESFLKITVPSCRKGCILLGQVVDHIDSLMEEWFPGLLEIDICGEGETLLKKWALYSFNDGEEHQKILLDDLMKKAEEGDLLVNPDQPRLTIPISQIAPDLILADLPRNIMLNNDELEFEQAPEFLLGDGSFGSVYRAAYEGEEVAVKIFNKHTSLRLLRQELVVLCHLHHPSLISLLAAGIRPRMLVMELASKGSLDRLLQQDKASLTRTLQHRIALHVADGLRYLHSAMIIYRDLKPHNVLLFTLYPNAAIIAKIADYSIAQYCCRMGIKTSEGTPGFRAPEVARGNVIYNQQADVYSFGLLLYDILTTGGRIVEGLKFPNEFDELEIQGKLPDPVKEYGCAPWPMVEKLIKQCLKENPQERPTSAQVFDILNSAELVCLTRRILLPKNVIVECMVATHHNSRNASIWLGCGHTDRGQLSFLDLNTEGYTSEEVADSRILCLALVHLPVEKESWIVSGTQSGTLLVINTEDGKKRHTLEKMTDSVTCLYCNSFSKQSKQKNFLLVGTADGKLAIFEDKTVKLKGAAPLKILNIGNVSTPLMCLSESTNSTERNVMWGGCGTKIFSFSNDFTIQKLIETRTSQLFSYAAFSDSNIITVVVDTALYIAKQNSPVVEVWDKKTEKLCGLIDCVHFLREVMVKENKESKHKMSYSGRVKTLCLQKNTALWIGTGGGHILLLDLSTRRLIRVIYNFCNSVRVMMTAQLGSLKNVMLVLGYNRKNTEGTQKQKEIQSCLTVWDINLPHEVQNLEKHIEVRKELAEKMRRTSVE

Compound | LRRK2 pIC50 | IC50 [nM]
COC[C@@H](O)CN1CCC(c2cc3nc(Nc4cnn(C5CC5)c4C)ncc3cc2Cl)CC1 [Ex-4.212, (2S)-1-(4-{6-chloro-2-[(1-cyclopropyl-5-methyl-1H-pyrazol-4-yl)amino]quinazolin-7-yl}piperidin-1-yl)-3-methoxypropan-2-ol] | 8.75 | –
N#Cc1cc2cnc(Nc3cnn(C4CC4)c3Cl)nc2cc1[C@H]1CCN(C2COC2)C[C@@H]1F (single isomer, unassigned) [Ex-6.2, (3R,4R) or (3S,4S) 2-((5-chloro-1-cyclopropyl-1H-pyrazol-4-yl)amino)-7-(3-fluoro-1-(oxetan-3-yl)piperidin-4-yl)quinazoline-6-carbonitrile] | >9.20 | –
Cc1cc2cnc(Nc3cnn(C4CC4(F)F)c3C)nc2cc1C1CCN([C@H]2COC[C@H]2O)CC1 (single isomer, unassigned) [Ex-4.141, (R)(3S,4S) or (S)(3S,4S) or (R)(3R,4R) or (S)(3R,4R) 4-[4-(2-{[1-(2,2-difluorocyclopropyl)-5-methyl-1H-pyrazol-4-yl]amino}-6-methylquinazolin-7-yl)piperidin-1-yl]oxolan-3-ol] | >9.20 | –
CC1(N2CCC(n3cc(Nc4ncc5cc(Cl)c(C6CC67CC7)cc5n4)cn3)CC2)COC1 (single isomer, unassigned) [Ex-2.5, (S) or (R) 6-chloro-N-{1-[1-(3-methyloxetan-3-yl)piperidin-4-yl]-1H-pyrazol-4-yl}-7-(spiro[2.2]pentan-1-yl)quinazolin-2-amine] | – | 2.19
CC(n1ncc(Nc2ncc3cc(Cl)c([C@@H]4CCN(C5COC5)C[C@H]4F)cc3n2)c1Cl)C(C)(C)O (single isomer, unassigned) [Ex-4.65, (R)(3S,4S) or (R)(3R,4R) or (S)(3S,4S) or (S)(3R,4R) 3-[5-chloro-4-({6-chloro-7-[3-fluoro-1-(oxetan-3-yl)piperidin-4-yl]quinazolin-2-yl}amino)-1H-pyrazol-1-yl]-2-methylbutan-2-ol] | 8.91 | –
Cc1c(Nc2ncc3cc(C(F)(F)F)c(C4CCN([C@@]5(C)COC[C@H]5O)CC4)cc3n2)cnn1C1CC1 (single isomer, unassigned) [Ex-9.1, (3S,4S) or (3R,4R) 4-(4-(2-((1-cyclopropyl-5-methyl-1H-pyrazol-4-yl)amino)-6-(trifluoromethyl)quinazolin-7-yl)piperidin-1-yl)-4-methyltetrahydrofuran-3-ol] | 9.19 | –
N#CC1(Cn2ncc(Nc3ncc4cc(Cl)c(C5CCN(C6COC6)CC5)cc4n3)c2Cl)CC1 [Ex-8.24, 1-{[5-chloro-4-({6-chloro-7-[1-(oxetan-3-yl)piperidin-4-yl]quinazolin-2-yl}amino)-1H-pyrazol-1-yl]methyl}cyclopropane-1-carbonitrile] | 8.92 | –
COCC12CC(n3ncc(Nc4ncc5cc(Cl)c(C6CCN(C7(C)COC7)CC6)cc5n4)c3Cl)(C1)C2 [Ex-8.39, 6-chloro-N-{5-chloro-1-[3-(methoxymethyl)bicyclo[1.1.1]pentan-1-yl]-1H-pyrazol-4-yl}-7-[1-(3-methyloxetan-3-yl)piperidin-4-yl]quinazolin-2-amine] | 8.98 | –
CC1(N2CC[C@H](c3cc4nc(Nc5cnn(C6CC6(F)F)c5Cl)ncc4cc3Cl)[C@@H](F)C2)COC[C@@H]1O (single isomer, unassigned) [Ex-4.11, (R)(3S,4S)(3S,4S) or (R)(3S,4S)(3R,4R) or (R)(3R,4R)(3S,4S) or (R)(3R,4R)(3R,4R) or (S)(3S,4S)(3S,4S) or (S)(3S,4S)(3R,4R) or (S)(3R,4R)(3S,4S) or (S)(3R,4R)(3R,4R) 4-(6-chloro-2-((5-chloro-1-(2,2-difluorocyclopropyl)-1H-pyrazol-4-yl)amino)quinazolin-7-yl)-3-fluoropiperidin-1-yl)-4-methyltetrahydrofuran-3-ol] | 8.73 | –
Cc1c(Nc2ncc3cc(Cl)c(C4CCN(C5COC5)CC4)cc3n2)cnn1C1CCOC1 (single isomer, unassigned) [Ex-2.23, (S) or (R) 6-chloro-N-[5-methyl-1-(oxolan-3-yl)-1H-pyrazol-4-yl]-7-[1-(oxetan-3-yl)piperidin-4-yl]quinazolin-2-amine] | – | 1.15
Cc1c(Nc2ncc3cc(Cl)c(C4CCN(C5COC5)CC4)cc3n2)cnn1C1CCOC1 (single isomer, unassigned) [Ex-2.24, (S) or (R) 6-chloro-N-[5-methyl-1-(oxolan-3-yl)-1H-pyrazol-4-yl]-7-[1-(oxetan-3-yl)piperidin-4-yl]quinazolin-2-amine] | – | 0.741
Cc1c(Nc2ncc3cc(Cl)c(C4CCN(C[C@H](O)c5ccccc5F)CC4)cc3n2)cnn1C1CC1 [Ex-4.203, (1R)-2-(4-{6-chloro-2-[(1-cyclopropyl-5-methyl-1H-pyrazol-4-yl)amino]quinazolin-7-yl}piperidin-1-yl)-1-(2-fluorophenyl)ethan-1-ol] | 8.03 | –
CC1(O)CCC(c2cc3nc(Nc4cnn(C5CC5)c4)ncc3cc2Cl)CC1 (stereo not drawn) [Ex-1.18, cis-or trans-4-(6-chloro-2-((1-cyclopropyl-1H-pyrazol-4-yl)amino)quinazolin-7-yl)-1-methylcyclohexan-1-ol] | 8.59 | –
Cc1c(Nc2ncc3cc(Cl)c([C@H]4CCN(C5COC5)C[C@@H]4F)cc3n2)cnn1C1CC1(F)F (single isomer, unassigned) [Ex-4.176, (R)(3S,4S) or (S)(3S,4S) or (R)(3R,4R) or (S)(3R,4R) 6-chloro-N-[1-(2,2-difluorocyclopropyl)-5-methyl-1H-pyrazol-4-yl]-7-[(3R,4R)-3-fluoro-1-(oxetan-3-yl)piperidin-4-yl]quinazolin-2-amine] | 8.73 | –
Cc1c(Nc2ncc3cc(Cl)c(C4CCN([C@]5(C)COC[C@@H]5O)CC4)cc3n2)cnn1C (single isomer, unassigned) [Ex-2.77, (3S,4S) or (3R,4R) 4-(4-{6-chloro-2-[(1,5-dimethyl-1H-pyrazol-4-yl)amino]quinazolin-7-yl}piperidin-1-yl)-4-methyloxolan-3-ol] | 8.01 | –
FC(F)Cn1ncc(Nc2ncc3cc(Cl)c(C4CCNCC4)cc3n2)c1Cl [Ex-4.93, 6-chloro-N-[5-chloro-1-(2,2-difluoroethyl)-1H-pyrazol-4-yl]-7-(piperidin-4-yl)quinazolin-2-amine] | 8.70 | –
CC(C)(O)Cn1ncc(Nc2ncc3cc(Cl)c(C4CCN(C5CCOC5)CC4)cc3n2)c1Cl (single isomer, unassigned) [Ex-4.79, (S) or (R) 1-[5-chloro-4-({6-chloro-7-[1-(oxolan-3-yl)piperidin-4-yl]quinazolin-2-yl}amino)-1H-pyrazol-1-yl]-2-methylpropan-2-ol] | – | < 0.631
Cc1c(Nc2ncc3cc(Cl)c(C4CCN(CC(C)(O)c5ccccc5)CC4)cc3n2)cnn1C1CC1 (single isomer, unassigned) [Ex-4.223, (S) or (R) 1-(4-{6-chloro-2-[(1-cyclopropyl-5-methyl-1H-pyrazol-4-yl)amino]quinazolin-7-yl}piperidin-1-yl)-2-phenylpropan-2-ol] | – | 2.45
CC(C)(O)Cn1ncc(Nc2ncc3cc(Cl)c([C@@H]4CCN(C5(C)COC5)C[C@H]4F)cc3n2)c1Cl (single isomer, unassigned) [Ex-2.2, (3S,4S) or (3R,4R) 1-(5-chloro-4-((6-chloro-7-(3-fluoro-1-(3-methyloxetan-3-yl)piperidin-4-yl)quinazolin-2-yl)amino)-1H-pyrazol-1-yl)-2-methylpropan-2-ol] | – | < 0.631
Cc1c(Nc2ncc3cc(Cl)c(C4CCN(C5COC(C)(C)C5)CC4)cc3n2)cnn1C1CC1 (single isomer, unassigned) [Ex-4.173, (R) or (S) 6-chloro-N-(1-cyclopropyl-5-methyl-1H-pyrazol-4-yl)-7-[1-(5,5-dimethyloxolan-3-yl)piperidin-4-yl]quinazolin-2-amine] | – | 3.72
Cc1c(Nc2ncc3cc(Cl)c([C@@H]4CCN(C5CCCC5O)C[C@H]4F)cc3n2)cnn1C1CC1 (single isomer, unassigned) [Ex-4.159, (1S,2R)(3S,4S) or (1R,2S)(3S,4S) or (1R,2R)(3S,4S) or (1S,2S)(3S,4S) or (1S,2R)(3R,4R) or (1R,2S)(3R,4R) or (1R,2R)(3R,4R) or (1S,2S)(3R,4R) 2-(4-{6-chloro-2-[(1-cyclopropyl-5-methyl-1H-pyrazol-4-yl)amino]quinazolin-7-yl}-3-fluoropiperidin-1-yl)cyclopentan-1-ol] | >9.20 | –
Clc1cc2cnc(Nc3cnn(C4CC4)c3Cl)nc2cc1C1CCN(C2COC(C3CC3)C2)CC1 (single isomer, unassigned) [Ex-4.167, (3R,5R) or (3S,5R) or (3R,5S) or (3S,5S) 6-chloro-N-(5-chloro-1-cyclopropyl-1H-pyrazol-4-yl)-7-[1-(5-cyclopropyloxolan-3-yl)piperidin-4-yl]quinazolin-2-amine] | 8.14 | –
Cc1c(Nc2ncc3cc(Cl)c(C4CCN([C@H]5COC[C@H]5O)CC4)cc3n2)cnn1C (single isomer, unassigned) [Ex-2.67, (3S,4S) or (3R,4R) 4-(4-{6-chloro-2-[(1,5-dimethyl-1H-pyrazol-4-yl)amino]quinazolin-7-yl}piperidin-1-yl)oxolan-3-ol] | >9.20 | –
CC1(N2CCC(c3cc4nc(Nc5cnn(C6CC6)c5Cl)ncc4cc3Cl)CC2)COC1 [Ex-8.10, 6-chloro-N-(5-chloro-1-cyclopropyl-1H-pyrazol-4-yl)-7-[1-(3-methyloxetan-3-yl)piperidin-4-yl]quinazolin-2-amine] | 9.08 | –
O[C@@H]1COC[C@@H]1N1CCC(c2cc3nc(Nc4cnn(C5CC5)c4Cl)ncc3cc2Cl)CC1 (single isomer, unassigned) [Ex-4.105, (3S,4S) or (3R,4R) 4-(4-(6-chloro-2-((5-chloro-1-cyclopropyl-1H-pyrazol-4-yl)amino)quinazolin-7-yl)piperidin-1-yl)tetrahydrofuran-3-ol] | 8.51 | –
